According to US6423753B1, “Use of colchinol derivatives as vascular damaging agents” (priority 1997, dated 2002):
Where two headings read alike, the source gives them in different places.

Tests used:
CaNT tumour = settings: for % decrease in vascular volume: administered at 50 mg/kg, fluorescent dye technique; for MED (mg/kg body weight): other tubulin-binding agents, by fluorescent dye technique; for MED mg/Kg body weight: minimum effective dose by the fluorescent dye technique; for vascular-damaging effects: at Maximum Tolerated Dose (30 mg/kg), 30 mg/kg
[1] = Maximum tolerated dose (no deaths in three animals); assay type: in vivo; settings: for MTD: mouse, in vivo, other tubulin-binding agents, read-out: MTD (mg/kg body weight); for MTD mg/Kg body weight: maximum tolerated dose, no deaths in three animals
Text: The phosphate compound was compared with the parent N-acetylcolchinol for the maximum tolerated dose (MTD) (no deaths in three animals), minimum effective dose (MED) measured by the fluorescent dye technique already described and the therapeutic window (MTD/MED).

[2] = test system: Subcutaneous CaNT tumours; assay: Activity against tumour vasculature measured by radioactive tracer (86RbCl extraction, relative blood flow); assay type: in vivo, mice; settings: dose of 125 mg/kg intraperitoneally
Protocol: Activity Against Tumour Vasculature Measured by Radioactive Tracer.
Subcutaneous CaNT tumours were initiated by injecting 0.05 ml of a crude tumour cell suspension, approximately 10^6 cells, under the skin overlying the rear dorsum of 12-16 week-old mice. The animals were selected for treatment after approximately 3-4 weeks, when their tumours reached a geometric mean diameter of 5.5-6.5 mm. Compounds were dissolved in sterile saline and injected intraperitoneally in a volume of 0.1 ml per 10 g body weight. Tumour perfusion was measured 6 hours after intraperitoneal administration in tumour, kidney, liver, skin muscle, gut and brain by the ^86RbCI extraction technique (Sapirstein, Amer J Physiol, 193, 161-168, 1958). Tissue radioactivity measured 1 minute after an intravenous injection of ^86RbCI was used to calculate relative blood flow as a proportion of cardiac output (Hill and Denekamp, Brit J Radiol, 55, 905-913, 1982). Five animals were used in control and treated groups. Results were expressed as a percentage of the blood flow in the corresponding tissues in vehicle treated animals.

[3] = compared with parent N-acetylcolchinol

Structure (SMILES): COc1cc2c(c(OC)c1OC)-c1ccc(O)cc1C(NC(=O)OCc1ccccc1)CC2 (stereo not drawn) [Example 3, N-Benzyloxvcarbonylcolchinol]
- % decrease in vascular volume (CaNT tumour): 43%

Structure (SMILES): COc1cc2c(c(OC)c1OC)-c1ccc(OC)c(=O)cc1[C@@H](NC(C)=O)CC2 [Colchicine, reference compound]
- MTD [1]: 5 mg/kg
- MED (mg/kg body weight) (CaNT tumour): 2.5 mg/kg body weight

Structure (SMILES): COc1cc2c(c(OC)c1OC)-c1ccc(O)cc1C(NS(=O)(=O)N(C)C)CC2 (stereo not drawn) [Example 6, N-Dimethylsulphamoylcolchinol]
- % decrease in vascular volume (CaNT tumour): 30%

Structure (SMILES): COc1cc2c(c(OC)c1OC)-c1ccc(O)cc1[C@@H](NC(C)=O)CC2 [N-acetylcolchinol, reference compound]
- MTD mg/Kg body weight [1]: 125 mg/Kg body weight
- % decrease in vascular volume (CaNT tumour): 78%
- MED mg/Kg body weight (CaNT tumour): 30 mg/Kg body weight

Structure (SMILES): CCNC1CCc2cc(OC)c(OC)c(OC)c2-c2ccc(O)cc21 (stereo not drawn) [Example 2, N-Ethylcolchinol]
- % decrease in vascular volume (CaNT tumour): 38%

Structure (SMILES): COC(=O)COc1ccc2c(c1)C(NC(C)=O)CCc1cc(OC)c(OC)c(OC)c1-2 (stereo not drawn) [Example 7, N-Acetyl-O-methoxycarbonylmethylcolchinol]
- % decrease in vascular volume (CaNT tumour): 12%

Structure (SMILES): COc1cc2c(c(OC)c1OC)-c1cc([N+](=O)[O-])c(O)cc1C(NC(C)=O)CC2 (stereo not drawn) [Example 10, N-Acetyl-10-nitrocolchinol]
- % decrease in vascular volume (CaNT tumour): 28%

Structure (SMILES): CC(=O)O[C@@]12CO[C@@H]1C[C@H](O)[C@@]1(C)C(=O)[C@H](O)C3=C(C)[C@@H](OC(=O)[C@H](O)[C@@H](NC(=O)OC(C)(C)C)c4ccccc4)C[C@@](O)([C@@H](OC(=O)c4ccccc4)[C@H]21)C3(C)C [Docetaxel, reference compound]
- MTD [1]: 30 mg/kg
- vascular-damaging effects (CaNT tumour): No effect
- vascular-damaging effects (CaNT tumour; listed as docetaxel): no vascular-damaging effects
- MED (mg/kg body weight) (CaNT tumour): > 30 mg/kg body weight

Structure (SMILES): COc1cc2c(c(OC)c1OC)-c1ccc(O)cc1C(NS(C)(=O)=O)CC2 (stereo not drawn) [Example 5, N-Mesylcolchinol]
- % decrease in vascular volume (CaNT tumour): 38%

Structure (SMILES): COc1cc2c(c(OC)c1OC)-c1ccc(OC3CCCC3)cc1C(NC(C)=O)CC2 (stereo not drawn) [Example 9, N-Acetyl-O-cyclopentylcolchinol]
- % decrease in vascular volume (CaNT tumour): 59%

Structure (SMILES): COc1cc2c(c(OC)c1OC)-c1ccc(O)cc1C(NC(=O)Nc1ccccc1)CC2 (stereo not drawn) [Example 4, N-(Phenylcarbamoyl) colchinol]
- % decrease in vascular volume (CaNT tumour): 37%

Structure (SMILES): COc1cc2c(c(OC)c1OC)-c1ccc(OCC(=O)O)cc1C(NC(C)=O)CC2 (stereo not drawn) [Example 8, N-Acetyl-O-carboxymethylcolchinol]
- % decrease in vascular volume (CaNT tumour): 49%

Structure (SMILES): COc1cc2c(c(OC)c1OC)-c1ccc(OP(=O)(O)O)cc1C(NC(C)=O)CC2 (stereo not drawn) [Example 1, N-Acetylcolchinol-O-phosphate]
- decrease in tumour blood flow ([2]; measured 6 hours after administration, relative to vehicle treated animals): 65%
- reduction in blood flow in skin, muscle, liver, kidney, gut or heart ([2]; normal tissues): no significant reduction
- MTD mg/Kg body weight [1]: 750 mg/Kg body weight
- % decrease in vascular volume (CaNT tumour): 89%
- MED mg/Kg body weight (CaNT tumour): 50 mg/Kg body weight
- solubility [3]: greater solubility
